Results taken from US12121526B2, “Targeting NCCA-ATP channel for organ protection following ischemic episode” (University of Maryland, Baltimore, priority 2007, dated 2024).
Entries after “also recorded” stand apart in the source; their conditions may differ. Where a name gives a salt, the structure may show the parent alone. Read-outs that look alike come from different tables or passages of the source.

Columns and labels:
[1] = system: temporary middle cerebral artery occlusion; details: cited from earlier work
[2] = system: permanent middle cerebral artery occlusion; details: cited from earlier work
NCCa-ATP channel [3] = target: T1, NCCa-ATP channel (Rattus norvegicus, UniProt Q09429); experiment: Patch clamp of NCCa-ATP channel in freshly isolated native reactive astrocytes; format: cell-based; details: for EC50: read-out: [ATP]1 EC50 (um)
T1 construct: endogenous in cells; host or cells: freshly isolated native reactive astrocytes (NRA/R1 astrocytes) from the hypoxic inner zone of the gliotic capsule in brain
Text: The NCCa-ATP channel is a 35 pS cation channel that conducts all inorganic monovalent cations (Na^+, K^+, Cs^+, Li^+, Rb^+), but is impermeable to Ca^2+ and Mg^2+ (Chen and Simard, 2001). […] Studies using a variety of organic monovalent cations indicate that the channel has an equivalent pore radius of 0.41 nm.
The NCCa-ATP channel is believed to be composed of pore-forming and regulatory subunits. The regulatory subunit is sulfonylurea receptor 1 (SUR1), the same as that for KATP channels in pancreatic β cells (Chen et al., 2003), and so NCCa-ATP and pancreatic KATP channels have pharmacological profiles that resemble each other closely. […] Knockdown of SUR1 using antisense-oligodeoxynucleotide reduces SUR1 expression (Simard et al., 2006) and prevents expression of functional NCCa-ATP channels.

NCCa-ATP channel [4] = target: T1, NCCa-ATP channel; details: cited from earlier work
[5] = target: T2, SUR1-regulated NCCa-ATP channel (Homo sapiens, UniProt Q09428); experiment: Patch clamp of cultured human aortic endothelial cells after hypoxia; format: cell-based
T2 construct: cultured endothelial cells from human aorta (ScienCell, SanDiego CA) were also studied; host or cells: human aortic endothelial cells (HAEC) cultured under hypoxia (1% O2)
Text: In addition to studying freshly isolated capillary endothelial cells from rat spinal cord, cultured endothelial cells from human aorta (ScienCell, SanDiego CA) were also studied. The purpose with these studies was to investigate whether hypoxia/ischemia can lead to up-regulation of the SUR1-regulated NCCa-ATP channels in endothelial cells, a finding that was previously reported for astrocytes and neurons (Chen et al., 2003; Simard et al., 2006), but not endothelial cells. Endothelial cells were cultured under normoxic (room air) and hypoxic (1% 02) conditions. Cells cultured under both conditions were immunolabeled for SUR1, the regulatory subunit of both KATP and NCCa-ATP channels.
The diazoxide-induced current (difference current in FIG. 15A) reversed at E(K) consistent with an SUR1-regulated KATP channel current.
Inside-out patches from cells maintained under hypoxic conditions were also studied. […]
Patch clamp of endothelial cells was performed using a nystatin-perforated patch technique, to maintain the metabolic integrity of the cells. The identity of the activated channel can be assessed by measurement of the “reversal potential”, the potential at which an ion channel current reverses from inward to outward. […]

[6] = target: receptor-mediated Ca2+ entry; details: cited from earlier work
global cerebral ischemia = details: in vivo; cited from earlier work
[7] = system: freshly isolated reactive astrocytes; details: cited from earlier work; for Cell blebbing: glibenclamide with 1 mM Na azide, diazoxide alone without ATP depletion
[8] = system: isolated retina of chick embryo; details: glucose/oxygen deprivation or excitotoxic conditions; cited from earlier work
NCCa-ATP channels = experiment: Nystatin-perforated patch clamp of hypoxic endothelial cells, current activated by Na+ azide; format: cell-based, human; details: 1 μM; hypoxic conditions
Protocol: Patch clamp of endothelial cells was performed using a nystatin-perforated patch technique, to maintain the metabolic integrity of the cells. The identity of the activated channel can be assessed by measurement of the “reversal potential”, the potential at which an ion channel current reverses from inward to outward. With physiologically relevant concentrations of ions intracellularly and extracellularly (high potassium inside, high sodium outside), the reversal potential can unambiguously distinguish between a K^+ channel current such as KATP, which reverses negative to −50 mV and a non-selective cation channel current such as NCCa-ATP, which reverses near 0 mV.
Channel activation was also studied upon induction by Na^+ azide, a […] that depletes cellular ATP (Chen and Simard, 2001).

[9] = system: large MCA stroke associated with malignant cerebral edema; details: cited from earlier work
[10] = system: freshly isolated reactive astrocytes; details: 1 mM Na azide; 1 μM glibenclamide; cited from earlier work
recombinant MMP = experiment: Zymography of gelatinase activity of recombinant MMP; format: biochemical; details: glibenclamide 10 μM; MMP-inhibitor II 300 nM
Text: In stroke, hemorrhagic conversion has been attributed to activation of matrix metalloproteinases (MMP) (Gidday et al., 2005; Justicia et al., 2003; Lorenzl et al., 2003; Romanic et al., 1998). […] This was studied directly using zymography of recombinant MMPs.

[11] = system: cervical spinal cord contusion injury; experiment: Rat cervical hemi-cord contusion spinal cord injury model; format: in vivo
Text: The cervical contusion SCI model that is used is that of Soblosky et al. (2001). Adult female Long-Evans rats are anesthetized (Ketamine and Xylazine) and a hemilaminectomy is made at C4-5 to expose the dura. A hemi-cervical spinal cord contusion is created using a blunt force impactor (see details below “The model of contusion SCI”).
To generate the injury for the data shown here, the impactor was activated using a 10-gm weight dropped from 2.5 cm.
Animals were sacrificed at ¾ hr and 24 hr after contusion SCI (n=5 rats per group), they were perfused with heparinized saline to remove intravascular blood, and 5-mm segments of cord encompassing the lesion were homogenized and processed using Drabkin's reagent to convert hemoglobin to cyanomethemoglobin for spectrophotometric measurements (Choudhri et al., 1997).
Animals underwent the same SCI as above, and immediately after, were implanted with mini-osmotic pumps (Alzet 2002, 14 day pump, […]; Durect Corporation, Cupertino, CA) that delivered either saline or drug s.q.
Spinal cords were examined 24 hr after SCI. […] In other rats, […] sections of cord were harvested that encompassed the contusion site and we quantified the amount of blood present in tissues after removal of intravascular blood by perfusion at time of euthanasia (n=5-6 rats per group).
As previously described (Gensel et al., 2006), rats were placed in a glass cylinder to which they had not been previously exposed. A peanut butter treat was placed 8 inches above the floor, and the number of seconds spent with both front paws elevated above shoulder-height was counted during a 3-min period of observation.

[12] = system: stroke induced by thromboemboli; details: constant infusion 75-200 ng/h; cited from earlier work
transient focal ischemia = details: pre- or post-ischemic administration; cited from earlier work
permanent MCAO = details: given 30 min after initiation of permanent MCAO; cited from earlier work
[13] = after 6 h of vascular occlusion
[14] = Membrane Preparation derived from freshly isolated native reactive astrocytes

T2 sequence (Q09428 whole entry): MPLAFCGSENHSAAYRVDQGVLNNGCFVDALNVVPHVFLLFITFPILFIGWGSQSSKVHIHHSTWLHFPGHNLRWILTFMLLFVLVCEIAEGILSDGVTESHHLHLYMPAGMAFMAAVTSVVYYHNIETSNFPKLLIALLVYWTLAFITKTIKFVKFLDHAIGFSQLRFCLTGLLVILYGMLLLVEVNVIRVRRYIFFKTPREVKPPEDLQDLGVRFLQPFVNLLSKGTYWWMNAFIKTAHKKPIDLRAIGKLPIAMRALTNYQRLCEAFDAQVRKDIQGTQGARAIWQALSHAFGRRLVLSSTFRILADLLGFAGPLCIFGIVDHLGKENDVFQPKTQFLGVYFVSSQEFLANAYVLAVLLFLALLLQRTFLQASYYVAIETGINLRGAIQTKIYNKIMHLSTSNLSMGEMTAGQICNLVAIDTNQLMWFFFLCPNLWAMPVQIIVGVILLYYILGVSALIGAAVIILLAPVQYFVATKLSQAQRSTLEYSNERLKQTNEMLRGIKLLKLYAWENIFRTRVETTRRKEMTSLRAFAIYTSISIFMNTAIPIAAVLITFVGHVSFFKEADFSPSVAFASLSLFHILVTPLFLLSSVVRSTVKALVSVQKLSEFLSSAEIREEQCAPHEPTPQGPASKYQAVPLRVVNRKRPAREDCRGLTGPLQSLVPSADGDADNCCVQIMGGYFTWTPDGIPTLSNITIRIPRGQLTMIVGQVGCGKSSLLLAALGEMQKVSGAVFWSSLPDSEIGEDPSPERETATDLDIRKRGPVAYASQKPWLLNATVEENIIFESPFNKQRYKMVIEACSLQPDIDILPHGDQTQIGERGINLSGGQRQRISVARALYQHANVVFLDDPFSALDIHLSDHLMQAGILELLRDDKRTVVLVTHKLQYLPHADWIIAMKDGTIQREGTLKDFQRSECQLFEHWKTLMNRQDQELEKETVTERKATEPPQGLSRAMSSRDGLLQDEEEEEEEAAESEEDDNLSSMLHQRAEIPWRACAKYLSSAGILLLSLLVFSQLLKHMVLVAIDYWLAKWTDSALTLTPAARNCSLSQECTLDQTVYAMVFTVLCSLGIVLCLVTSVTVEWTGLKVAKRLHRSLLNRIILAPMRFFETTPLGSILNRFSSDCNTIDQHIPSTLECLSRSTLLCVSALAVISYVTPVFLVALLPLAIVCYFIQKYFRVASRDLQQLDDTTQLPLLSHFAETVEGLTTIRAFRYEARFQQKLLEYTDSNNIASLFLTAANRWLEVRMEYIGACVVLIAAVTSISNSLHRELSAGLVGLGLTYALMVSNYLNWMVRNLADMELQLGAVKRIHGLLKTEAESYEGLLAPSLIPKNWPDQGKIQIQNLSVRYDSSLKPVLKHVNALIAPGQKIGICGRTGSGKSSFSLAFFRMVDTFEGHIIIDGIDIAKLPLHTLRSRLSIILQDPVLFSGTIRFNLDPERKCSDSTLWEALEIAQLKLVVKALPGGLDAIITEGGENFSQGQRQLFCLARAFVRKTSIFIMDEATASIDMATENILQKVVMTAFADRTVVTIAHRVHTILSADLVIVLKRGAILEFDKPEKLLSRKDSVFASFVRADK
T2 sequence (Q8TD43 whole entry partner): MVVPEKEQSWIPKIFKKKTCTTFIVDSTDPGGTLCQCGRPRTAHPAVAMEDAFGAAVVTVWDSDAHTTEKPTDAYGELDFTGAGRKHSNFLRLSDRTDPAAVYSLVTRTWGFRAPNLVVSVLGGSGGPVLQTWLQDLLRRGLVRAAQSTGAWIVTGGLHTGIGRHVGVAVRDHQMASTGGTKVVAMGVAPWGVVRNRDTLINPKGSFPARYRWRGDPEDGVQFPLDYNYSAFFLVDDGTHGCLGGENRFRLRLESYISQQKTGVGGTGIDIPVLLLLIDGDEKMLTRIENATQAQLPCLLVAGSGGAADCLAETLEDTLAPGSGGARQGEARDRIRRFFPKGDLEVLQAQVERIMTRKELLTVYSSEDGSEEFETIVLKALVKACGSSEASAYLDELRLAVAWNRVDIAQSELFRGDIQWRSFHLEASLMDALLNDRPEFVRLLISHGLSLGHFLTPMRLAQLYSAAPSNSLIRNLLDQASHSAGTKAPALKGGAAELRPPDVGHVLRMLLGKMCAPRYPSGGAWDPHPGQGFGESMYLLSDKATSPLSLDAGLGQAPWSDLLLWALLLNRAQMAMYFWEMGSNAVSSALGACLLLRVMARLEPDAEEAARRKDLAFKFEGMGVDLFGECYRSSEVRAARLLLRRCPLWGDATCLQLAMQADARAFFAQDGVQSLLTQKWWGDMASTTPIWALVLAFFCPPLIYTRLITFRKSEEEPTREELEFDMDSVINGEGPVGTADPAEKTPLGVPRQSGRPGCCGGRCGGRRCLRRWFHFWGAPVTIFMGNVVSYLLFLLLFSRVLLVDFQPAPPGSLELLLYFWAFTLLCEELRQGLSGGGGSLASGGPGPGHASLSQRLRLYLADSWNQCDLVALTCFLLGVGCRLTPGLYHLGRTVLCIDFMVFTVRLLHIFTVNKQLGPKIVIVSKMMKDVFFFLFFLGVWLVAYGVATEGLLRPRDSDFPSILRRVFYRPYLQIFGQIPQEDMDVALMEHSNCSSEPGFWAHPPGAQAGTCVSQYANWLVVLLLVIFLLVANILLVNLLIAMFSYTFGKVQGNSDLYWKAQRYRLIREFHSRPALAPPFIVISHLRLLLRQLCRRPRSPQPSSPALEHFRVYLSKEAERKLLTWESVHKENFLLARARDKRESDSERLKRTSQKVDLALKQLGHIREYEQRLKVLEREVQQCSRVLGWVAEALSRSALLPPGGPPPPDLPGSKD

In the case of COc1cc2c(cc1OC)C(C(C(=O)N(CCc1ccc(OC)c(OC)c1OC)CCc1ccc(OC)c(OC)c1OC)c1ccccc1)=NCC2 (racemic) [pinokalant, (R,S)-(3,4-dihydro-6,7-dimethoxy-isoquinoline-1-yl)-2-phenyl-N,N-di[2-(2,3,4-trimethoxyphenyl)ethyl]-acetamide], the DWI-derived infarct volume ([1]; 4 h after MCAO) is given as “significantly smaller”, the Neurological scores ([1]; at 24 h) is given as “significantly better” and the TTC-derived infarct volume ([1]; postmortem) is given as “significantly attenuated”. For the same molecule, the Blood flow [2, 13] was “significantly higher”, the “Reduction of the volume of ATP-depleted and morphologically injured tissue (infarct core)” value [2, 13] was 60-70% and the “Decrease of ADC lesion volume” value ([2]; initial 6 h of vascular occlusion, untreated increased by approximately 50%) was “approximately 20%”.

For Nc1ncnc2c1ncn2[C@@H]1O[C@H](COP(=O)(O)OP(=O)(O)O)[C@@H](O)[C@H]1O [ADP], the Effect on channel (NCCa-ATP channel [3]; [14]) is given as “No channel effect”, the Effect on channel (NCCa-ATP channel [3]; Reactive Astrocytes) is given as “No channel effect” and the “Effect on channel opening” value (NCCa-ATP channel [4]) is given as “unaffected”.

In the case of Nc1ncnc2c1ncn2[C@@H]1O[C@H](COP(=O)(O)O)[C@@H](O)[C@H]1O [AMP], the Effect on channel (NCCa-ATP channel [3]; [14]) is given as “No channel effect”, the Effect on channel (NCCa-ATP channel [3]; Reactive Astrocytes) is given as “No channel effect” and the “Effect on channel opening” value (NCCa-ATP channel [4]) is given as “unaffected”.

For Nc1ncnc2c1ncn2[C@@H]1O[C@H](COP(=O)(O)OP(=O)(O)OP(=O)(O)O)[C@@H](O)[C@H]1O [ATP], the EC50 (NCCa-ATP channel [3]; [14]) is listed as 790 nM, the EC50 (NCCa-ATP channel [3]; Reactive Astrocytes) is listed as 790 nM and the EC50 (NCCa-ATP channel [4]; read-out: Block of channel opening, EC50) is listed as 790 nM. For the same molecule, the “Single channel openings in inside-out patches” value ([5]; 20 μM in the bath, hypoxic cells, Cs+ as cation) was “inhibited”.

In the case of COc1ccc(CCCOC(Cn2ccnc2)c2ccc(OC)cc2)cc1 (stereo not drawn) [SKF 96365, 1-(beta-[3-(4-methoxy-phenyl)propoxy]-4-methoxyphenethyl)-1H-imidazole hydrochloride], the IC50 [6] is given as about 10000 nM.

For COc1cc(CNC(=O)CCCC/C=C/C(C)C)ccc1O [capsaicin], the “Electroencephalographic changes, hyperlocomotion and memory impairment induced by global ischemia” value (global cerebral ischemia) is listed as “antagonize”.

For Oc1cc2c(cc1O)CN(C(=S)NCCc1ccc(Cl)cc1)CCC2 [capsazepine], the “Effect on rimonabant-induced and capsaicin-induced neuroprotective effects” value (global cerebral ischemia) is given as “reversed”.

In the case of CC1=NS(=O)(=O)c2cc(Cl)ccc2N1 [diazoxide], the Cell blebbing [7] is listed as “reproduced”, the “Block or opening of the NCCa-ATP channel” value (NCCa-ATP channel [4]) is listed as “opened” and the “Channel opening in the presence of ATP” value (NCCa-ATP channel [4]; in the presence of ATP) is listed as “increased”. The “Membrane current, reversing near 0 mV” value ([5]; cells maintained under hypoxic conditions) was “significantly increased; also recorded: activated an ohmic current”.

For O=C(O)c1ccccc1Nc1cccc(C(F)(F)F)c1 [flufenamic acid], the “Protection of retina against ischemic or excitotoxic insult” value (shortened to “Protection of retina”) [8] is given as “protected”.

In the case of COc1ccc(Cl)cc1C(=O)NCCc1ccc(S(=O)(=O)NC(=O)NC2CCCCC2)cc1 [glibenclamide], the “Ohmic current activated by Na+ azide-induced ATP depletion” value (NCCa-ATP channels) is given as “blocked”, the Membrane depolarization ([7]; cells exposed to Na+ azide to deplete ATP) is given as “blocks” and the Cell blebbing [7] is given as “significantly reduces; also recorded: completely prevented; also recorded: blocked”. The Reduction of mortality ([9]; constant infusion 75-200 ng/h) was “by half”, the 7-day mortality ([9]; control rats 68%, n=29 in each group) was 28% and the “Reduction of cerebral edema / ionic edema (excess water)” value ([9]; low-dose, post-ischemic) was “reduced by half”. The “Necrotic cell death induced by Na azide” value [10] was “significantly reduced; also recorded: significant reduced”, the Gelatinase activity (recombinant MMP) was “the same” and the “Hemorrhage at the contusion site” value ([11]; 24 hr after SCI, 75 ng/hr s.q.) was “significantly reduced; also recorded: less prominent”. For the same molecule, the “Blood in 6-mm cord segment encompassing the contusion” value ([11]; 24 hr after SCI, 75 ng/hr s.q., vehicle 1.9±0.02) was 0.9 ± 0.2 µL, the “Neurological function (rearing behavior)” value ([11]; 24 hr after injury, 3-min observation) was “significant neurological functional improvement; also recorded: significantly better; also recorded: improves neurological function” and the “Reduction of lesion volume / stroke size” value [12] was “reduced by half”.

In the case of Cc1ccc(Cl)c(Nc2ccccc2C(=O)O)c1Cl [meclofenamic acid], the “Protection of retina” value [8] is given as “protected”.

In the case of Cc1cccc(Nc2ccccc2C(=O)O)c1C [mefenamic acid], the “Protection of retina” value [8] is given as “protected” and the “Neuroprotection (necrosis in cortex and subcortical structures)” value (transient focal ischemia) is given as “no neuroprotection”.

In the case of CCOc1cc(CC(=O)N[C@@H](CC(C)C)c2ccccc2N2CCCCC2)ccc1C(=O)O [repaglinide], the “Block or opening of the NCCa-ATP channel” value (NCCa-ATP channel [4]) is listed as “blocked”.

For Cc1c(C(=O)NN2CCCCC2)nn(-c2ccc(Cl)cc2Cl)c1-c1ccc(Cl)cc1 [rimonabant], the “Reduction of infarct volume” value (permanent MCAO) is listed as about 40% and the “Electroencephalographic changes, hyperlocomotion and memory impairment induced by global ischemia” value (global cerebral ischemia) is listed as “antagonize”.
